Results published in US20040175447A1, “Feeds and fertilizers containing pentacyclic triterpenes” (The Nisshin OilliO, Ltd., priority 2001, published 2004).

Test system: B-16 melanoma cells
Test: Evaluation of melanin production-inhibitory effect (cell-whitening degree of cultured B-16 melanoma cells); on Melanin production-inhibitory effect (cell-whitening degree): key: ++: The whitening degree is higher than that observed for the positive control; +: The whitening degree is almost identical to that observed for the positive control; ±: The whitening degree is not higher than that observed for the positive control, but higher than that observed for the control; −: The whitening degree is almost identical to that observed for the control
Type: cell-based
Conditions: for Melanin production-inhibitory effect (cell-whitening degree): positive control 450 ppm vitamin C-magnesium phosphate; for melanogenesis-inhibitory function relative to that observed when 450 ppm of vitamin C-magnesium phosphate (standard) is added: from Table 1
Description: In the present invention, the melanogenesis-inhibitory effect is evaluated and compared on the basis of the results of tests for examining the melanogenesis-inhibitory function in which B-16 melanoma cells are cultivated, as a primary evaluation. Moreover, a feed is, for instance, practically prepared and its effectiveness in the melanogenesis-inhibition is evaluated as a secondary evaluation. It has been confirmed that the pentacyclic triterpenes whose strong melanogenesis-inhibitory function is confirmed by the cell culture test as the primary evaluation also show an excellent effect in the secondary evaluation test. In addition, it has also been confirmed that there is a correlation between the results obtained in these two evaluation methods.
If the culture system includes a melanogenesis-inhibitory substance during the proliferation thereof, the blackening of the cells is suppressed while the whitening thereof is relatively promoted. Accordingly, the melanogenesis-inhibitory function of the substance can be evaluated by comparing the degree of whitening observed for the substance with the degree of blackening observed for a control. The evaluated results of the melanogenesis-inhibitory effect obtained in this cell culture system clearly indicate that the pentacyclic triterpenes and/or physiologically acceptable salts thereof or derivatives thereof have quite strong melanogenesis-inhibitory effects. For instance, when comparing the effects thereof with that achieved by vitamin C-magnesium phosphate, the melanogenesis-inhibitory effect is about 100 to 200 times, for maslinic acid, about 100 to 200 times, for maslinic acid salts, about 10 to 100 times, for erythrodiol, about 30 to 120 times, for uvaol, about 30 to 120 times, for betulinic acid, about 10 to 100 times, for betulin, about 100 to 200 times, for ethyl maslinate, about 50 to 150 times, for acetylated maslinic acid, about 30 to 120 times, for triethylsilylated maslinic acid, about 50 to 150 times, for stearoyl derivative of ethyl maslinate, about 10 to 100 times, for acetylated erythrodiol, about 10 to 100 times, for acetylated uvaol, about 10 to 100 times, for ethyl betulinate, and about 5 to 50 times, for acetylated betulin, that observed for the vitamin C-magnesium phosphate.
A culture medium was dispensed to wells of a 6-well plate (2 mL/well each), followed by inoculation of a desired amount of B-16 melanoma cells on each well, allowing the wells to stand at 37° C. and 5% CO2 to thus cultivate the cells. On the day subsequent thereto, a candidate sample (pentacyclic triterpenes) solution prepared was added to and mixed with the culture medium containing the cells and the cultivation was continued. The culture medium was replaced with fresh one on the 5th day from the initiation of the cultivation and the prepared sample solution was again added to the wells. On the next day, the culture medium was removed to recover the cells, followed by the washing of these cells with PBS (phosphate buffered physiological saline) and the subsequent evaluation of the cell-whitening degree. In this respect, the melanogenesis-inhibitory function was evaluated by comparing the cell-whitening degree thus obtained with that observed when using 450 ppm of vitamin C-magnesium phosphate as a known whitening agent (a positive control) and that obtained when any candidate sample was not used (control), according to the following evaluation criteria.
The evaluation criteria for the cell-whitening degree are as follows:
Regarding the results listed in Table 1, the whitening degree observed when adding 450 ppm of vitamin C-magnesium phosphate is selected as a standard.

| Compound | Melanin production-inhibitory effect (cell-whitening degree) (2 ppm) | Melanin production-inhibitory effect (cell-whitening degree) (6 ppm) | Melanin production-inhibitory effect (cell-whitening degree) (10 ppm) | Melanin production-inhibitory effect (cell-whitening degree) (25 ppm) | Melanin production-inhibitory effect (cell-whitening degree) (50 ppm) | melanogenesis-inhibitory function relative to that observed when 450 ppm of vitamin C-magnesium phosphate (standard) is added | Melanin production-inhibitory effect (cell-whitening degree) (4 ppm) | Melanin production-inhibitory effect (cell-whitening degree) (8 ppm) | Melanin production-inhibitory effect (cell-whitening degree) (15 ppm) | Melanin production-inhibitory effect (cell-whitening degree) (100 ppm) | Melanin production-inhibitory effect (cell-whitening degree) (200 ppm) | Melanin production-inhibitory effect (cell-whitening degree) (300 ppm) | Melanin production-inhibitory effect (cell-whitening degree) (450 ppm) | concentration required for showing the effect identical to that observed for 450 ppm of vitamin C-magnesium phosphate [ppm] |
| --- | --- | --- | --- | --- | --- | --- | --- | --- | --- | --- | --- | --- | --- | --- |
| C=C(C)[C@@H]1CC[C@]2(CO)CC[C@]3(C)[C@H](CC[C@@H]4[C@@]5(C)CC[C@H](O)C(C)(C)[C@@H]5CC[C@]43C)[C@@H]12 [Betulin] | − | ± | ± | + | + | about 20 times |  |  |  |  |  |  |  |  |
| C=C(C)[C@@H]1CC[C@]2(C(=O)O)CC[C@]3(C)[C@H](CC[C@@H]4[C@@]5(C)CC[C@H](O)C(C)(C)[C@@H]5CC[C@]43C)[C@@H]12 [Betulinic acid] | − | ± | + | + | + | about 40 times |  |  |  |  |  |  |  |  |
| CCOC(=O)[C@]12CCC(C)(C)C[C@H]1C1=CC[C@@H]3[C@@]4(C)C[C@@H](O)[C@H](O)C(C)(C)[C@@H]4CC[C@@]3(C)[C@]1(C)CC2 [Compound of Synthesis 1, Ethyl Ester of Maslinic Acid] | ± | ++ | ++ |  |  | about 110 times | + | ++ |  |  |  |  |  |  |
| CC(=O)O[C@@H]1C[C@]2(C)[C@H]3CC=C4[C@@H]5CC(C)(C)CC[C@]5(C(=O)O)CC[C@@]4(C)[C@]3(C)CC[C@H]2C(C)(C)[C@H]1OC(C)=O [Compound of Synthesis 2, 2,3-O-Di-Acetyl-Maslinic Acid] | ± | + | ++ |  |  | about 75 times | ± | ++ | ++ |  |  |  |  |  |
| CC[Si](CC)(CC)OC(=O)[C@]12CCC(C)(C)C[C@H]1C1=CC[C@@H]3[C@@]4(C)C[C@@H](O[Si](CC)(CC)CC)[C@H](O[Si](CC)(CC)CC)C(C)(C)[C@@H]4CC[C@@]3(C)[C@]1(C)CC2 [Compound of Synthesis 3, Triethylsilyl Ester of 2,3-O-Di-Triethylsilyl-Maslinic Acid] | − | ± | + | + | + | about 40 times |  |  |  |  |  |  |  |  |
| CCCCCCCCCCCCCCCCCC(=O)O[C@@H]1C[C@]2(C)[C@H]3CC=C4[C@@H]5CC(C)(C)CC[C@]5(C(=O)OCC)CC[C@@]4(C)[C@]3(C)CC[C@H]2C(C)(C)[C@H]1OC(=O)CCCCCCCCCCCCCCCCC [Compound of Synthesis 4, Ethyl 2,3-O-Di-Stearoyl-Maslinate] | ± | + | ++ |  |  | about 75 times | ± | ++ | ++ |  |  |  |  |  |
| CC(=O)OCC12CCC(C)(C)CC1C1=CCC3C4(C)CCC(OC(C)=O)C(C)(C)C4CCC3(C)C1(C)CC2 (stereo not drawn) [Compound of Synthesis 5, 3,28-O-Di-Acetyl-Erythrodiol] | − | ± | ± | + | + | about 20 times |  |  |  |  |  |  |  |  |
| CCOC(=O)[C@]12CC[C@@H](C)[C@H](C)[C@H]1C1=CC[C@@H]3[C@@]4(C)CC[C@H](O)C(C)(C)[C@@H]4CC[C@@]3(C)[C@]1(C)CC2 [Compound of Synthesis 6, Ethyl Ursolate] | ± | ++ | ++ |  |  | about 110 times | + | ++ |  |  |  |  |  |  |
| CC(=O)OC[C@]12CC[C@@H](C)[C@H](C)[C@H]1C1=CC[C@@H]3[C@@]4(C)CC[C@H](OC(C)=O)C(C)(C)[C@@H]4CC[C@@]3(C)[C@]1(C)CC2 [Compound of Synthesis 7, 3,28-O-Di-Acetyl-Uvaol] | − | − | ± | + | + | about 20 times |  |  |  |  |  |  |  |  |
| C=C(C)[C@@H]1CC[C@]2(C(=O)OCC)CC[C@]3(C)[C@H](CC[C@@H]4[C@@]5(C)CC[C@H](O)C(C)(C)[C@@H]5CC[C@]43C)[C@@H]12 [Compound of Synthesis 8, Ethyl Betulinate] | − | ± | ± | + | + | about 20 times |  |  |  |  |  |  |  |  |
| C=C(C)[C@@H]1CC[C@]2(COC(C)=O)CC[C@]3(C)[C@H](CC[C@@H]4[C@@]5(C)CC[C@H](OC(C)=O)C(C)(C)[C@@H]5CC[C@]43C)[C@@H]12 [Compound of Synthesis 9, 3,28-O-Di-Acetyl-Betulin] | − | − | ± | ± | + | about 10 times |  |  |  |  |  |  |  |  |
| CC1(C)CC[C@]2(CO)CC[C@]3(C)C(=CC[C@@H]4[C@@]5(C)CC[C@H](O)C(C)(C)[C@@H]5CC[C@]43C)[C@@H]2C1 [Erythrodiol] | ± | ± | ± | + | + | about 20 times |  |  |  |  |  |  |  |  |
| O=c1cc(CO)occ1O [Kojic Acid, reference compound] |  |  | − | − | ± |  |  |  | − | ± | + | ++ | ++ |  |
| CC1(C)CC[C@]2(C(=O)O)CC[C@]3(C)C(=CC[C@@H]4[C@@]5(C)C[C@@H](O)[C@H](O)C(C)(C)[C@@H]5CC[C@]43C)[C@@H]2C1 [Purified maslinic acid 1, maslinic acid] |  |  |  |  |  | about 110 times |  |  |  |  |  |  |  | 4 |
